Laboratory results from patent US20090005395A1 (Solvay Pharmaceuticals, B.V., priority 2007, published 2009).

Key:
[1] = Reduction of sildenafil N-oxide in the human colon model TIM2; format: in vitro ADME
Method: The human colon model TIM2 (TNO Intestinal Model 2) is a dynamic model for the human large intestine that simulates in vivo conditions. It is an artificial digestive system that has been validated by many studies (Minekus, 1999).
Suspended in 1% methylcellulose, sildenafil-N-oxide (1 mg) was inserted into the lumen (120 ml) of the TIM2 model (see above, Minekus, 1999). Samples from the lumen and the dialysate (the latter being a model for the vascular bed of the intestines) were taken at various time intervals, and analyzed for sildenafil-N-oxide and sildenafil.

[2] = test system: PDE-I; assay: In vitro inhibition of phosphodiesterases (CEREP): PDE-I; conditions: bovine brain
[3] = Plasma and brain concentrations of N-desmethylsildenafil (pilot experiment); format: in vivo, male NMRI mice; conditions: mice, i.v. or p.o.; for the N-oxide only observed after oral dosing
Method: Sildenafil and its N-oxide were analyzed in mouse plasma and brain samples using a generic bioanalytical method comprising protein precipitation and HPLC with MS/MS detection.
Sample preparation: Proteins in 100 μl plasma were precipitated with acetonitrile, and 5 μl samples of the obtained solution were analyzed. Complete brains were homogenized and centrifuged, and 10 μl samples of the supernatant were analyzed.
Liquid Chromatography-Tandem Mass Spectrometry (LC-MS/MS) was performed using a Sciex API4000 LC-MS/MS. Quantification of the samples was done using extracted calibration samples, treated the same as the study samples in the range of 1-5000 ng/ml and 5.0-5000 ng/brain for plasma and brains samples, respectively. Compound peak area was used for quantification. The calibration curves were fitted to the model y=A+Bx+Cx^2 (y is the peak area of the analyte, x is the nominal calibration level in ng/ml (plasma) or ng/g (brain), A is the intercept, B is the slope and C is the description of the curvature). 1/x^2 weighing was used. LC-MS/MS system performance was monitored using a reference solution injected at standard intervals. The method use for testing was not validated in detail, therefore the reported concentrations were good estimations. The Lower Limit Of Quantification (LLOQ) was established at 1.00 ng/ml and 5.00 ng/brain, for plasma and brain samples, respectively. […]

[4] = test system: PDE-IV; assay: In vitro inhibition of phosphodiesterases (CEREP): PDE-IV; conditions: human U-937 monocytes
[5] = TIM2, 1 mg in 1% methylcellulose into lumen (120 ml), 0 h
[6] = TIM2, 1 mg into lumen (120 ml), 2 h
[7] = TIM2, 1 mg into lumen (120 ml), 4 h
[8] = TIM2, 1 mg into lumen (120 ml), 6 h
[9] = TIM2, 1 mg into lumen (120 ml), 8 h
[10] = TIM2, 1 mg into lumen (120 ml), 24 h

Sildenafil-N-oxide Dialysate concentration [1, 5]: <1.0 ng/mL
Sildenafil-N-oxide Lumen concentration [1, 5]: <1.0 ng/mL
Sildenafil-N-oxide Dialysate concentration [1, 6]: 33 ng/mL
Sildenafil-N-oxide Lumen concentration [1, 6]: 6.6 ng/mL
Sildenafil-N-oxide Dialysate concentration [1, 7]: <1.0 ng/mL
Sildenafil-N-oxide Lumen concentration [1, 7]: 4.7 ng/mL
Sildenafil-N-oxide Dialysate concentration [1, 8]: <1.0 ng/mL
Sildenafil-N-oxide Lumen concentration [1, 8]: 4.9 ng/mL
Sildenafil-N-oxide Dialysate concentration [1, 9]: <1.0 ng/mL
Sildenafil-N-oxide Lumen concentration [1, 9]: 6.7 ng/mL
Sildenafil-N-oxide Dialysate concentration [1, 10]: <1.0 ng/mL
Sildenafil-N-oxide Lumen concentration [1, 10]: 2.7 ng/mL
pIC50 PDE-I [2]: 5.8
metabolism to N-desmethylsildenafil [3]: metabolized to N-desmethylsildenafil
pIC50 PDE-IV [4]: <5.0
Structure (SMILES): CCCc1nn(C)c2c(=O)[nH]c(-c3cc(S(=O)(=O)N4CC[N+](C)([O-])CC4)ccc3OCC)nc12 [Sildenafil-N-oxide, 1-[[3-(6,7-dihydro-1-methyl-7-oxo-3-propyl-1H-pyrazolo[4,3-d]pyrimidin-5-yl)-4-ethoxyphenyl]sulfonyl]-4-methyl-4-oxido-piperazine]
reduction to sildenafil in TIM2 ([1]; within 2 hours after dosing): nearly quantitatively reduced to sildenafil
